According to PMC11806654, “In Vitro Discovery of a Therapeutic Lead for HFMD From a Library Screen of Rocaglates/Aglains” (Journal of Medical Virology, 2025):
Entries after “also recorded” stand apart in the source; their conditions may differ. Like-named read-outs stand apart in the source and are kept apart here.

How the values were obtained:
EV-A71 [1] = assay: High-throughput immunofluorescence antiviral screen in NSC-34 cells; assay type: cell-based, human enterovirus A71; settings: for log reduction at 10 µM: Enterovirus A
NSC-34 cells [2] = assay: alamarBlue cytotoxicity screen; settings: screen, 10 µM
SARS-CoV-2 = test system: SARS-CoV-2; parameters: method as in PMID 39117283; settings: cited from earlier work
NF-κB = settings: read-out: NF-κB inhibition IC50; cited from earlier work
A549 = test system: A549; parameters: method as in PMID 11170675; settings: A549 cell line; cited from earlier work
P-388 = test system: P-388; parameters: method as in PMID 11170675; settings: P-388 cell line; cited from earlier work
EV-A71 [3] = assay: Plaque-assay antiviral validation in NSC-34 cells; assay type: cell-based, human enterovirus A71; settings: for Maximum viral titre reduction observed in dose response (Log): EV-A71 MOI 1, plaque assay; for EC50: Enterovirus A, EVA71, EV-A71 MOI 1, plaque assay
Experimental: (§1) The complete cytotoxicity profiles of selected rocaglate/aglain derivatives against NSC‐34 or SH‐SY5Y cells were determined via the alamarBlue assay. Treated cells were incubated with the compounds for 12 h (NSC‐34) or 24 h (SH‐SY5Y). Negative and vehicle controls of this assay involved cells treated with fresh reduced serum DMEM and 0.1% DMSO, respectively. Cell viability in each treatment group was determined based on the intensity of colorimetric changes of each treatment group. […] Following incubation, infected cells were rinsed with sterile 1X PBS to remove any unbound virus particles. Specific concentrations of respective compounds were added to the cells in triplicates and incubated for 12 h (NSC‐34) or 24 h (SH‐SY5Y). At the end of the incubation period, two cycles of freeze‐thaws (−80°C; 37°C) were performed on the plates before collection of supernatants from each treatment or control group for virus titre measurement via plaque assay, as described.
(§2) (A) NSC‐34 cells were treated with various concentrations of respective compounds, in the presence or absence of EV‐A71 (MOI 1) infection. Resulting cell viability and virus yield from respective experimental setups were determined via alamarBlue and plaque assays, respectively. […] For (B), (C) and (D), virus titres were represented in bars and shown on the left‐hand y‐axis, whereas cell viabilities were presented in lines and illustrated on the right‐hand y‐axis.
(§3) Figure S1. Validation of cytotoxicity and antiviral profiles of compound 13 in NSC-34 cells. NSC-34 cells were treated with specific concentrations of compound 13 in the presence or absence of EV-A71 (MOI 1) infection. Resulting cell viability and virus yield from respective experimental setups were determined via alamarBlue^TM and plaque assays, respectively.

[4] = alamarBlue cytotoxicity dose response, NSC-34; settings: mouse
Experimental: as §1, §2, §3

EV-A71 [5] = assay: Plaque-assay antiviral dose response in RD cells; assay type: cell-based, human enterovirus A71; settings: Enterovirus A, EVA71
Experimental: as §1
(§4) (A) NSC‐34 cells were treated with various concentrations of respective compounds, in the presence or absence of EV‐A71 (MOI 1) infection. Resulting cell viability and virus yield from respective experimental setups were determined via alamarBlue and plaque assays, respectively. […]

[6] = alamarBlue cytotoxicity dose response, RD; assay type: cell-based; settings: human, RD cells
EV-A71 [7] = assay: Plaque-assay antiviral dose response in SH-SY5Y cells; assay type: cell-based, human enterovirus A71
Experimental: as §1, §4

[8] = alamarBlue cytotoxicity dose response, SH-SY5Y; assay type: cell-based; settings: human, SH-SY5Y cells
Experimental: as §1, §4

EV-A71 [9] = assay: Plaque-assay antiviral dose response in primary HBMECs; assay type: cell-based, human enterovirus A71; settings: Enterovirus A, EVA71
Experimental: (§5) Evaluation of cytotoxicity and antiviral profiles of compound 13 in primary human brain microvascular endothelial cells (HBMECs). HBMECs were treated with specific concentrations of compound 13, in the presence or absence of EV-A71 (MOI 1) infection. Resulting cell viability and virus yield from respective experimental setups were determined via alamarBlue^TM and plaque assays, respectively.

[10] = alamarBlue cytotoxicity dose response, HBMECs; assay type: cell-based; settings: human, primary human brain microvascular endothelial cells (HBMECs)
Experimental: as §5

CV-A6 = assay: Pan-enterovirus plaque assay in SH-SY5Y cells, CV-A6; assay type: cell-based
Experimental: as §1, §4

CV-A16 = assay: Pan-enterovirus plaque assay in SH-SY5Y cells, CV-A16; assay type: cell-based, Coxsackievirus A16
Experimental: as §1, §4

EV-A71 [11] = assay: Time-of-addition / time-of-removal assay in SH-SY5Y cells; assay type: cell-based, human enterovirus A71; settings: 8 μM
EV-A71 [12] = assay: Entry-bypass assay (viral RNA transfection) in SH-SY5Y cells; assay type: cell-based, human enterovirus A71
Experimental: Having excluded the virus attachment and entry steps, we deemed it likely that aglain 13 targets the early post‐entry stages of EV‐A71 life cycle involving the initial virus uncoating, viral RNA genome replication or protein production. As packaging and secretion of newly synthesized EV‐A71 virions from infected cells generally begin after 6 h.p.i., compound 13 is unlikely to interfere with the later phases of the virus life cycle (Figure 6A). The ability of compound 13 to interfere with EV‐A71 post‐entry events was further corroborated via our entry‐bypass assay wherein host cells were first transfected with in vitro isolated viral RNA before compound treatment (Figure 6D). […] As compound 13 targets the intracellular replication steps of EV‐A71, its effects on two primary pre‐packaging stages of the virus life cycle, namely viral RNA replication and protein production, were evaluated.

[13] = test system: positive- and negative-sense RNA of EV-A71; assay: qRT-PCR strand-specific viral RNA quantification; assay type: cell-based, human enterovirus A71; settings: 6 and 8 µM, 12 and 24 h.p.i., SH-SY5Y cells
in vitro = settings: mouse
EV-A71 VP2 = assay: Immunoblotting of viral protein; settings: SH-SY5Y cells, versus vehicle control
Experimental: Cells from specific treatment and control groups were lysed with lysis buffer containing 1X Laemmli buffer. The resulting cell lysates were heated for 10 min at 95°C and subjected to SDS‐PAGE run in 10% acrylamide gels at 100 V for 2 h. The proteins were then transferred to a polyvinylidene fluoride membrane using the Trans‐Blot Turbo system (Bio‐Rad). Following a 20 min membrane blocking using 2% bovine serum albumin (BSA) dissolved in Tris‐buffered saline‐Tween 20 (TBST), specific viral protein and host loading controls were probed using the mouse antibodies targeting EV‐A71 VP2 (MAB979) and host β‐actin, respectively. After 1 h incubation with constant rocking at room temperature, the membranes were subjected to three rounds of washes using TBST before incubation at room temperature with horseradish peroxidase (HRP) conjugated goat anti‐mouse IgG secondary antibody (Thermo Fisher Scientific) for 1 h. Following three rounds of membrane washing with TBST, specific protein bands were developed using the Immobilon Western Chemiluminescent HRP substrate (Merck Millipore) for 3 min. […]
Lysates of EV‐A71 (MOI 1)‐infected SH‐SY5Y cells treated with specific concentrations of compound 13 were used for (A) qRT‐PCR‐based viral strand‐specific RNA quantification or (B) immunoblotting measurement of specific protein levels. […]

EV-A71 [14] = assay: Co-treatment assay in SH-SY5Y cells; settings: compound present during infection
Experimental: (§6) The assays were performed in SH‐SY5Y cells in triplicates and resulting virus titres were quantified via plaque assays as previously described [27].
(§7) (A) Time‐of‐addition (TOA) and time‐of‐removal (TOR) of compound 13 (8 μM) at specific time points across the EV‐A71 replication cycle in SH‐SY5Y cells. For TOA, virus‐containing media was aspirated and replaced with compound 13 (8 μM) at 0, 2, 4, 6, 8, 10, 12 or 18 h postinfection (h.p.i.). […] At 24 h.p.i., supernatant from each treatment and control group was collected for virus quantification via plaque assay. Separately, SH‐SY5Y cells were infected with EV‐A71 (MOI 1) and treated with specific concentrations of compound 13 according to previously published experimental schemes for (B) pre‐treatment, (C) co‐treatment and (D) entry‐bypass assays [27]. At 24 h.p.i., supernatant was collected and used for virus yield measurement via plaque assay. Every assay was performed in triplicates with error bars representing standard deviation from the mean of triplicates. 0.1% DMSO served as the mock control group of respective assays.
(§8) In the pre‐treatment set‐up, host cells were first treated with the compound before virus challenge. […] Conversely, in the co‐treatment assay extracellular virions were treated with the compound before infecting the cells. […]

EV-A71 [15] = assay: Pre-treatment assay in SH-SY5Y cells; settings: cells exposed to compound before infection
Experimental: as §6, §7, §8

[16] = test system: replication-competent EV-A71 replicon; assay: Nano-luciferase replicon assay, replication-competent; settings: SH-SY5Y cells, 24 h
Experimental: (§9) Using DharmaFECT 1 transfection reagent (Dharmacon), SH‐SY5Y cells seeded in 96‐well plates were transfected with either our established replication‐competent or replication‐defective EV‐A71 replicon construct [27, 29] and incubated for 4 h. At the end of incubation, the transfected cells were washed with sterile 1X PBS and treated with 0.1% DMSO or respective concentrations of test compound or positive controls. Guanidine hydrochloride (GuHCl) was used as positive control for the replication‐competent replicon, and cycloheximide (CHX) was used as positive control for the replication‐defective replicon. After 24 h, luciferase signal detection was subsequently performed using the Nano‐Glo kit (Promega, Madison, WI, USA) with a GLOMAX Multi‐Detection System microplate reader (Promega, Madison, WI, USA).
(§10) Guanidine hydrochloride (GuHCl), an eukaryotic RNA transcription inhibitor [38], and cycloheximide (CHX), an inhibitor of the elongation phase during RNA translation [39], were used as positive controls of respective assays. 0.1% DMSO served as the mock control group of respective assays. Luminescence readings generated by SH‐SY5Y cells transfected with either the established replication‐competent or replication‐defective replicons [27] were measured using a microplate reader and normalized against the DMSO control. […]

[17] = test system: replication-defective EV-A71 replicon; assay: Nano-luciferase replicon assay, replication-defective; settings: SH-SY5Y cells, 24 h
Experimental: as §9, §10

[18] = alamarBlue cytotoxicity screen; settings: mouse, NSC-34 cells
NSC-34 cells [19] = assay: in vitro
Experimental: as §1, §2, §3

[20] = EVA71, screen, 10 µM, NSC-34 cells, EV-A71 MOI 1, 12 h, read-out: EV-A71 inhibition (logs), reduction in viral titre
[21] = EVA71, NSC-34, 12 h, read-out: EV-A71 inhibition (logs), reduction in viral titre, screen, 10 µM, NSC-34 cells, EV-A71 MOI 1, 12 h

CONC(=O)C1C(O)C2(O)c3c(OC)cc(OC)cc3OC2(c2ccc(OC)cc2)C1c1ccccc1 (stereo not shown) [Compound 3, CR‐1‐31b, reference compound]
log reduction at 10 µM (EV-A71 [1]; [20]): > 2 | antiviral activity in screen (EV-A71 [1]; screen, 10 µM, NSC-34 cells): appreciable antiviral activity | host cell cytotoxicity in screen (NSC-34 cells [2]): unacceptably toxic; also recorded: high level of host cell cytotoxicity

COc1ccc(C23Oc4cc(OC)cc(OC)c4C24NC(C)=NC4(O)C(C(=O)N(C)OC)C3c2ccccc2)cc1 (stereo not shown) [Compound 4]
log reduction at 10 µM (EV-A71 [1]; [21]): > 2 | antiviral activity in screen (EV-A71 [1]; screen, 10 µM, NSC-34 cells): appreciable antiviral activity | inhibition of SARS-CoV-2 replication (SARS-CoV-2): inhibition of SARS‐CoV‐2 replication | host cell cytotoxicity in screen (NSC-34 cells [2]): unacceptably toxic; also recorded: high level of host cell cytotoxicity

COC(=O)C1C(O)C2(O)c3c(OC)cc(OC)cc3OC2(c2ccc(OC)cc2)C1c1ccccc1 (stereo not shown) [Compound 6, reference compound]
log reduction at 10 µM (EV-A71 [1]; [20]): > 2 | antiviral activity in screen (EV-A71 [1]; screen, 10 µM, NSC-34 cells): appreciable antiviral activity

COc1ccc(C23Oc4cc(OC)cc(OC)c4C(O)(C(C(=O)N4CCCC4OC)C2c2ccccc2)C3O)cc1 (stereo not shown) [Compound 8, (‐)‐ponapensin]
IC50 (NF-κB): 0.06 µM

CC=C(C)C(=O)NC1CCCN1C(=O)C1C(c2ccccc2)C2(c3ccc(OC)cc3)Oc3cc(OC)cc(OC)c3C1(O)C2O (stereo not shown) [Compound 9, (‐)‐elliptifoline]
cytotoxic activity ED50 (A549): 18.9 µg/mL | cytotoxic activity ED50 (P-388): 3.4 µg/mL

COc1ccc(C23Oc4cc(OC)cc(OC)c4C(O)(C(c4c(F)c(F)c(F)c(F)c4F)C2c2ccccc2)C3O)cc1 (stereo not shown) [Compound 13]
log reduction at 10 µM (EV-A71 [1]; [21]): 2.3 | downregulation of virus titer (EV-A71 [3]; 15 µM): approximately 2 logs | selectivity index (SI = CC50/EC50) (EV-A71 [3]; EV-A71): 6.1 | Maximum viral titre reduction observed in dose response (Log) (EV-A71 [3]): 2.53 Log | EC50 (EV-A71 [3]): 3.57 µM | CC50 at 12 h [4]: 21.8 µM | EC50 (EV-A71 [5]): 0.43 µM | CC50 [6]: 11.2 µM | downregulation of virus titer (EV-A71 [7]; 8 µM, SH-SY5Y cells): approximately 2 logs | EC50 (EV-A71 [7]; Enterovirus A, EVA71, EV-A71 in SH-SY5Y cells): 5.43 µM | CC50 at 24 h [8]: 11 µM | EC50 (EV-A71 [9]): 32.8 µM | CC50 [10]: 89.4 µM | infectious CV-A6 titers (CV-A6; 6 and 8 µM, SH-SY5Y cells): significantly reduced | EC50 (CV-A6; Enterovirus A, CVA6, CV-A6 in SH-SY5Y cells): 0.51 µM | infectious CV-A16 titers (CV-A16; 6 and 8 µM, SH-SY5Y cells): significantly reduced | EC50 (CV-A16; Enterovirus A, CVA16, CV-A16 in SH-SY5Y cells): 0.8 µM | time of addition at which EV-A71 yields were suppressed (EV-A71 [11]; TOA): < 6 h.p.i. | viral load on time-of-removal (EV-A71 [11]; TOR, every time point up to 18 h.p.i.): continuous reduction in the viral load | suppression of virus yields, entry-bypass (EV-A71 [12]; 6 µM): 0.88 logs | suppression of virus yields, entry-bypass (EV-A71 [12]; 8 µM): 2.27 logs | positive- and negative-sense RNA of EV-A71 [13]: significant decrease | viability at 10 µM (in vitro; Cell Viability (%), screen, 10 µM, NSC-34 cells, 12 h): > 90% | Cell Viability (%) (NSC-34 cells [2]; 12 h): 91% | downregulation of viral protein expression levels (VP2) (EV-A71 VP2): > 50% | inhibition of EV-A71 replication, co-treatment (EV-A71 [14]): ineffective inhibition; also recorded: no significant inhibition | inhibition of EV-A71 replication, pre-treatment (EV-A71 [15]): ineffective inhibition; also recorded: no significant inhibition | luciferase signal, replication-competent replicon [16]: significantly decreased | luciferase signal, replication-defective replicon [17]: significantly decreased

COc1ccc(C23Oc4cc(OC)cc(OC)c4C(O)(C2=O)C(c2ccccc2)C3c2ccccc2)cc1 (stereo not shown) [Compound 14]
log reduction at 10 µM (EV-A71 [1]; EVA71, NSC-34, 12 h, screen, 10 µM, NSC-34 cells, EV-A71 MOI 1, 12 h, read-out: EV-A71 inhibition (logs), reduction in viral titre): ~1 | EV-A71 inhibition (logs), reduction in viral titre (EV-A71 [1]; screen, 10 µM, NSC-34 cells, EV-A71 MOI 1, 12 h): 1.0 logs | Maximum viral titre reduction observed in dose response (Log) (EV-A71 [3]): 0.82 Log | EC50 (EV-A71 [3]): 18.9 µM | CC50 at 12 h ([4]; NSC-34 cells): 42.6 µM | viability at 12 h, 10 µM [18]: 106%

COC(=O)C1C(c2ccccc2)C2(c3ccc(Br)cc3)C(=O)C1(O)c1c(OC)cc(OC)cc1N2C (stereo not shown) [Compound 15]
log reduction at 10 µM (EV-A71 [1]; [21]): 1.2 | Maximum viral titre reduction observed in dose response (Log) (EV-A71 [3]): 0.74 Log | EC50 (EV-A71 [3]): 5.27 µM | CC50 at 12 h [4]: > 50 µM | viability at 12 h, 10 µM (in vitro): 91%

COC(=O)C1C(c2ccccc2)C2(c3ccc(Br)cc3)C(O)C1(O)c1c(OC)cc(OC)cc1N2C (stereo not shown) [Compound 16]
log reduction at 10 µM (EV-A71 [1]; [21]): 1.4 | antiviral activity in screen (EV-A71 [1]; screen, 10 µM, NSC-34 cells): showed antiviral activity | Maximum viral titre reduction observed in dose response (Log) (EV-A71 [3]): 0.89 Log | EC50 (EV-A71 [3]): 44.2 µM | CC50 at 12 h [4]: > 50 µM | viability at 12 h, 10 µM (in vitro): 81%

COC(=O)C1C(c2ccccc2)C2(c3ccc(OC)cc3)Oc3cc(OC)cc(OC)c3C1(O)C2O (stereo not shown) [Compound 17]
log reduction at 10 µM (EV-A71 [1]; [21]): 0.1 | antiviral activity in screen (EV-A71 [1]; screen, 10 µM, NSC-34 cells): no measurable antiviral activity | viability at 12 h, 10 µM (in vitro): 108% | host cell cytotoxicity in screen (NSC-34 cells [2]): non‐cytotoxic

COC(=O)C1C(c2ccccc2)C2(c3ccc(Br)cc3)Oc3cc(OC)cc(OC)c3C1(O)C2=O (stereo not shown) [Compound 18]
CC50 at 12 h [4]: 13.1 µM | host cell cytotoxicity in dose response (NSC-34 cells [19]): significant degree of cytotoxicity
